Assay results as given in ChEMBL document CHEMBL3045632, “Synthetic inhibitors of the fungal detoxifying enzyme brassinin oxidase based on the phytoalexin camalexin scaffold” (J Agric Food Chem, 2009).

Experiments:
[1] = tested on: Plenodomus lingam; experiment: Inhibition of Leptosphaeria maculans brassinin oxidase activity at 0.10 mM relative to control
[2] = tested on: Plenodomus lingam; experiment: Inhibition of Leptosphaeria maculans brassinin oxidase activity at 0.30 mM relative to control
[3] = tested on: Plenodomus lingam; experiment: Inhibition of Leptosphaeria maculans brassinin oxidase assessed as relative protein at 0.50 mM relative to control
[4] = tested on: Plenodomus lingam; experiment: Antifungal activity against Leptosphaeria maculans assessed as inhibition of mycelial growth at 0.20 mM relative to control; type: functional
[5] = tested on: Plenodomus lingam; experiment: Inhibition of Leptosphaeria maculans brassinin oxidase assessed as relative specific activity at 0.50 mM relative to control
[6] = tested on: Plenodomus lingam; experiment: Inhibition of Leptosphaeria maculans brassinin oxidase assessed as relative specific activity at 0.10 mM relative to control
[7] = Solubility of the compound at 50 mM; type: physicochemical; details: 50000 µM
[8] = tested on: Plenodomus lingam; experiment: Inhibition of Leptosphaeria maculans brassinin oxidase assessed as relative protein at 0.10 mM relative to control
[9] = tested on: Plenodomus lingam; experiment: Antifungal activity against Leptosphaeria maculans assessed as inhibition of mycelial growth at 0.10 mM relative to control; type: functional
[10] = tested on: Plenodomus lingam; experiment: Inhibition of Leptosphaeria maculans brassinin oxidase assessed as relative protein at 0.20 mM relative to control
[11] = tested on: Plenodomus lingam; experiment: Inhibition of Leptosphaeria maculans brassinin oxidase assessed as relative specific activity at 0.20 mM relative to control
[12] = tested on: Plenodomus lingam; experiment: Antifungal activity against Leptosphaeria maculans assessed as inhibition of mycelial growth at 0.50 mM relative to control; type: functional

Row | SMILES | inhibition [1] | inhibition [2] | Ratio [3] | Ratio [5] | Ratio [6] | solubility [7] | Ratio [8] | Ratio [10] | Ratio [11] | inhibition at 200 µM [4] | inhibition at 100 µM [9] | inhibition at 500 µM [12]
1 | Fc1ccc2c(-c3ccccc3)c[nH]c2c1 | 11% | 17% |  |  |  |  |  |  |  |  |  | 
2 | c1ccc2c(-c3cnsc3)cccc2c1 | 16% | 21% |  |  |  |  |  |  |  |  |  | 
3 | c1ccc2cc(-c3cnsc3)ccc2c1 [2-NAPHTHALENYLISOTHIAZOLE] | 29% | 42% | 0.16 | 16.3 | 2.6 | Insoluble | 0.26 | 0.17 | 8.5 | 53% | 41% | 
4 | c1ccc(-c2c[nH]c3ccccc23)cc1 [3-PHENYLINDOLE] |  |  | 0.1 | 5.7 | 30.9 |  | 0.18 | 0.14 | 39.2 |  | 100% | 
5 | Fc1ccc2[nH]cc(-c3nccs3)c2c1 [5-FLUOROCAMALEXIN] | 47% | 63% | 0.19 | 7.9 | 5 |  | 0.3 | 0.23 | 4.9 | 81% | 76% | 100%
6 | c1ccc2c(-c3nccs3)c[nH]c2c1 [CAMALEXIN] | 30% | 53% | 0.1 | 2.5 | 4.5 |  | 0.28 | 0.24 | 6.9 | 65% | 35% | 100%
7 | c1ccc2[nH]c(-c3cscn3)nc2c1 [THIABENDAZOLE] | 16% | 25% | 0.06 | 4.9 | 1.9 |  | 0.35 | 0.28 | 4.1 |  | 100% | 

Continued, in another order:

Row | inhibition [1] | inhibition [2] | Ratio [3] | Ratio [5] | Ratio [6] | solubility [7] | Ratio [8] | Ratio [10] | Ratio [11] | SMILES | inhibition at 200 µM [4] | inhibition at 100 µM [9] | inhibition at 500 µM [12]
8 | 51% | 72% | 0.13 | 1.6 | 1.7 |  | 0.28 | 0.24 | 5.8 | COc1ccc2[nH]cc(-c3nccs3)c2c1 [5-METHOXYCAMALEXIN] | 84% | 60% | 100%
9 | 29% | 46% | 0.24 | 1.8 | 3.9 |  | 0.36 | 0.28 | 4 | Fc1ccc2c(-c3nccs3)c[nH]c2c1 [6-FLUOROCAMALEXIN] | 47% | 29% | 83%
10 | 41% | 63% | 0.11 | 4 | 2.3 |  | 0.27 | 0.16 | 3.7 | COc1ccc2c(-c3nccs3)c[nH]c2c1 [6-METHOXYCAMALEXIN] | 78% | 17% | 100%
